Patent US20260191807A1, “COMPOSITIONS AND METHODS FOR TREATMENT OF PRADER-WILLI SYNDROME” (ERX Pharmaceuticals Inc., priority 2022, published 2026)

Columns and labels:
Type in all cases: in vivo
[1] = tested on: C57BL/6-Magel2 mice; test: Daily food intake of C57BL/6 Magel2 mice; conditions: for Food intake (food weights in g/day): mean
Description: (§1) In the study disclosed herein, celastrol at was administered intraperitoneally using a 30G needle at a dose of 0.2 mg/kg to five female Magel2 homozygous mice (−/−) and four male mice heterozygous for Magel2 (−/+). In addition, vehicle was administered to four male mice heterozygous for Magel2 (−/+) for 21 days.
(§2) C57BL/6-Magel2 mice were bred for purpose from cryo recovery by Jackson Labs (Bar Harbor, ME) and arrived at the testing facility at age 8 weeks.
(§3) All treatment volumes were 10 mL/kg. Utilizing the art-recognized nestlet shredding mouse model, the dose was administered by gavage (as capsule dosing is challenging in mice). Celastrol and the vehicle control were administered intraperitoneally using a 30G needle. All treatments were administered daily in the afternoon at 17:00 h, 1 hour before dark cycle from Day 1 to end of dosing.
(§4) Celastrol was dissolved in 50% Solutol/50% DMAC. The resulting stock solution aliquoted and stored at −80° C. until treatment day. On the day of treatment an aliquot of the stock solution was thawed and diluted 1:20 with saline to obtain the desired dosing solution strength in 5%
(§5) Daily food intake was calculated based on remaining food weight compared to food weight on the previous day using an Ohaus model CS 200 balance.

[2] = tested on: C57BL/6 DIO mice; test: Daily food intake of C57BL/6 DIO mice; conditions: for Food intake (food weights in g/day): Belaronib 0.3 mg/kg SC, Celastrol 0.2 mg/kg IP daily, mean
Description: C57BL/6 mice were treated with test compound (Celastrol) or controls as shown in the table below from Day 1 to Day 15. […] One mouse was excluded from the study because it appeared resistant to nestlet shredding prior to treatment.
Male C57BL/6 DIO mice were obtained from Jackson Labs (Bar Harbor, ME). The mice arrived at ages 17 weeks and mice were housed 3 per cage on arrival. Prior to dosing in the study, the mice were singly housed.
as §3, with “needle. Beloranib was administered subcutaneously using a 30G needle.” for “needle.”
Celastrol was dissolved in a pharmaceutically-acceptable excipient, e.g., 50% Solutol/50% DMAC, and this stock solution aliquoted and stored at −80° C. until treatment day. On the day of treatment, an aliquot of the stock solution was thawed and diluted […] with saline to obtain the desired dosing solution strength in 5% Solutol/5% dimethylacetamide/90% saline. The vehicle control was 5% Solutol/5% dimethylacetamide/90% saline. Beloranib was dissolved in 100% DMSO, and this stock solution was aliquoted and stored at −80° C. until treatment day. On the day of treatment, an aliquot of the stock solution was thawed and diluted 1:10 with deionized (DI) water to obtain the desired dosing solution strength in 10% DMSO.
as §5

[3] = tested on: C57BL/6-Magel2 mice; test: Body weights of C57BL/6 Magel2 mice during daily treatment; conditions: Day 1, 0.2 mg/kg IP QD, mean
Description: as §1, §2, §3, §4
Mouse body weights were recorded from an Ohaus model CS 200 balance. Mice were weighed daily on Day 1 to Day 21. Body weight changes are expressed as grams and percent of the initial body weight (on Day 1, when treatments began).

[4] = Magel2 (−/+) heterozygous male mice

SMILES: CC1=C(O)C(=O)C=C2C1=CC=C1[C@@]2(C)CC[C@@]2(C)[C@@H]3C[C@](C)(C(=O)O)CC[C@]3(C)CC[C@]12C [Celastrol]
- Food intake (food weights in g/day) ([1]; Day 1, Magel2 (−/+) heterozygous male mice, 0.2 mg/kg IP QD): 6.6 g/day
- Food intake (food weights in g/day) ([1]; Day 1, Magel2 (−/−) homozygous female mice, 0.2 mg/kg IP QD): 5.9 g/day
- Food intake (food weights in g/day) ([1]; Day 2, Magel2 (−/+) heterozygous male mice, 0.2 mg/kg IP QD): 4.9 g/day
- Food intake (food weights in g/day) ([1]; Day 2, Magel2 (−/−) homozygous female mice, 0.2 mg/kg IP QD): 5.9 g/day
- Food intake (food weights in g/day) ([1]; Day 4, Magel2 (−/+) heterozygous male mice, 0.2 mg/kg IP QD): 7.0 g/day
- Food intake (food weights in g/day) ([1]; Day 4, Magel2 (−/−) homozygous female mice, 0.2 mg/kg IP QD): 6.4 g/day
- Food intake (food weights in g/day) ([1]; Day 6, Magel2 (−/+) heterozygous male mice, 0.2 mg/kg IP QD): 6.3 g/day
- Food intake (food weights in g/day) ([1]; Day 6, Magel2 (−/−) homozygous female mice, 0.2 mg/kg IP QD): 6.2 g/day
- Food intake (food weights in g/day) ([1]; Day 8, Magel2 (−/+) heterozygous male mice, 0.2 mg/kg IP QD): 5.2 g/day
- Food intake (food weights in g/day) ([1]; Day 8, Magel2 (−/−) homozygous female mice, 0.2 mg/kg IP QD): 4.6 g/day
- Food intake (food weights in g/day) ([1]; Day 10, Magel2 (−/+) heterozygous male mice, 0.2 mg/kg IP QD): 3.1 g/day
- Food intake (food weights in g/day) ([1]; Day 10, Magel2 (−/−) homozygous female mice, 0.2 mg/kg IP QD): 2.4 g/day
- Food intake (food weights in g/day) ([1]; Day 11, Magel2 (−/+) heterozygous male mice, 0.2 mg/kg IP QD): 3.9 g/day
- Food intake (food weights in g/day) ([1]; Day 11, Magel2 (−/−) homozygous female mice, 0.2 mg/kg IP QD): 1.4 g/day
- Food intake (food weights in g/day) ([1]; Day 13, Magel2 (−/+) heterozygous male mice, 0.2 mg/kg IP QD): 5.1 g/day
- Food intake (food weights in g/day) ([1]; Day 13, Magel2 (−/−) homozygous female mice, 0.2 mg/kg IP QD): 4.0 g/day
- Food intake (food weights in g/day) ([1]; Day 15, Magel2 (−/+) heterozygous male mice, 0.2 mg/kg IP QD): 5.9 g/day
- Food intake (food weights in g/day) ([1]; Day 15, Magel2 (−/−) homozygous female mice, 0.2 mg/kg IP QD): 5.2 g/day
- Food intake (food weights in g/day) ([1]; Day 17, Magel2 (−/+) heterozygous male mice, 0.2 mg/kg IP QD): 3.2 g/day
- Food intake (food weights in g/day) ([1]; Day 17, Magel2 (−/−) homozygous female mice, 0.2 mg/kg IP QD): 2.2 g/day
- Food intake (food weights in g/day) ([1]; Day 18, Magel2 (−/+) heterozygous male mice, 0.2 mg/kg IP QD): 2.5 g/day
- Food intake (food weights in g/day) ([1]; Day 18, Magel2 (−/−) homozygous female mice, 0.2 mg/kg IP QD): 3.2 g/day
- Food intake (food weights in g/day) ([1]; Day 20, Magel2 (−/+) heterozygous male mice, 0.2 mg/kg IP QD): 6.2 g/day
- Food intake (food weights in g/day) ([1]; Day 20, Magel2 (−/−) homozygous female mice, 0.2 mg/kg IP QD): 4.6 g/day
- Food intake (food weights in g/day) ([1]; Day 21, Magel2 (−/+) heterozygous male mice, 0.2 mg/kg IP QD): 5.0 g/day
- Food intake (food weights in g/day) ([1]; Day 21, Magel2 (−/−) homozygous female mice, 0.2 mg/kg IP QD): 11.1 g/day
- Food intake (food weights in g/day) ([1]; Day −2 (before dosing), Magel2 (−/+) heterozygous male mice): 5.0 g/day
- Food intake (food weights in g/day) ([1]; Day −2 (before dosing), Magel2 (−/−) homozygous female mice): 3.2 g/day
- difference in food intake between the groups (in words) ([1]; treated Magel2 (−/+) and (−/−) groups versus vehicle, 0.2 mg/kg IP QD): not a significant difference in food intake
- cumulative food intake, average total for the study ([2]; 15-day study, Beloranib 0.3 mg/kg SC, celastrol 0.2 mg/kg IP daily, vehicle 32.6 g): 17.4 g/mouse
- effect on food intake (in words) ([2]; Celastrol compared with positive control Beloranib): more potent and sustained effect on food intake
- Food intake (food weights in g/day) ([2]; Day 1): 2.7 g/day
- Food intake (food weights in g/day) ([2]; Day 2): 1.2 g/day
- Food intake (food weights in g/day) ([2]; Day 3): 1.1 g/day
- Food intake (food weights in g/day) ([2]; Day 4): 0.9 g/day
- Food intake (food weights in g/day) ([2]; Day 5): 0.7 g/day
- Food intake (food weights in g/day) ([2]; Day 6): 0.9 g/day
- Food intake (food weights in g/day) ([2]; Day 7): 1.1 g/day
- Food intake (food weights in g/day) ([2]; Day 8): 1.2 g/day
- Food intake (food weights in g/day) ([2]; Day 9): 0.7 g/day
- Food intake (food weights in g/day) ([2]; Day 10): 0.9 g/day
- Food intake (food weights in g/day) ([2]; Day 11): 1.1 g/day
- Food intake (food weights in g/day) ([2]; Day 12): 1.3 g/day
- Food intake (food weights in g/day) ([2]; Day 13): 1.4 g/day
- Food intake (food weights in g/day) ([2]; Day 14): 1.2 g/day
- Food intake (food weights in g/day) ([2]; Day 15): 1.0 g/day
- food intake, average ([2]; from day 2 throughout the 15-day study, 0.2 mg/kg IP daily, vehicle around 2.2): 1.0 g/day/mouse
- Body weights (expressed as a percentage of day-1 weight) [3, 4]: 100.0%
- Body weights (in grams) [3, 4]: 26.6 grams
- Body weights (expressed as a percentage of day-1 weight) ([3]; Magel2 (−/−) homozygous female mice): 100.0%
